# Source: a melting point compilation (Tetko et al.)
row,Structure (SMILES),melting point [°C]
1,CCOC(=O)c1cc(C#N)c(SCC(=O)O)[nH]c1=O,195 to 197
2,Brc1ncnc2ccccc12,94 to 96
3,O=C(O)c1cnc2onc(C3CC3)c2c1,206 to 208
4,Nc1nc(C2CC2)ns1,144 to 146
5,CCC(N)(C(=O)O)c1ccccc1 (stereo not given),285 to 287
6,O=C(O)c1cccc(S(=O)(=O)Nc2ccc(Cl)cc2)c1,250 to 252
7,CC(=O)Nc1ccc(S(=O)(=O)NCCC(=O)O)cc1,160 to 162
8,O=[N+]([O-])c1cccc(-c2nccs2)c1,238 to 240
9,Cn1c(=O)[nH]c2ccccc2c1=O,242 to 244
10,Cc1ccc(Cl)c(OC(C)C(=O)O)c1 (stereo not given),137 to 139
11,Fc1ccc2c(c1)NCCC2,46 to 48
12,COc1cc(C=O)c([N+](=O)[O-])cc1OCC(F)F,139 to 141
13,O=C1c2ccccc2-c2n[nH]c3cccc1c23,236 to 238
14,O=C(O)CSc1cccc(C(F)(F)F)c1,19 to 21
15,NNC(=O)Cc1ccccn1,111 to 113
16,O=C(O)C1CCN(c2ccc(Cl)c(Cl)c2)C1=O (stereo not given),165 to 167
17,O=C(O)CNS(=O)(=O)c1ccc2c(c1)nnn2O,229 to 231
18,CCc1nonc1N,69 to 71
19,NC(=S)N1CCc2sccc2C1,109 to 111
20,Nc1ccc(S(=O)(=O)NC2CC2)cc1,145 to 147
21,CCC1CCC2(CC1)NC(=O)N(CC(=O)O)C2=O (stereo not given),214 to 216
22,CN(CC(=O)O)S(=O)(=O)c1cccs1,152 to 156
23,COc1ccc(C(=O)CNC(=O)CCC(=O)O)cc1,167 to 169
24,Cc1ccc(NS(=O)(=O)c2cccc(C(=O)O)c2)cc1,203 to 205
25,NNC(=O)Cn1cnc2ccccc21,108 to 110

row,Structure (SMILES),melting point [°C]
1,Cc1cn2c(n1)CNCC2,100 to 102
2,CC(=O)c1ccc(SCC(=O)O)c(F)c1,140 to 142
3,O=C(O)c1ccn(-c2c(F)cccc2F)n1,179 to 181
4,NC1(c2ccc(Br)cc2)CCOCC1,85 to 87
5,O=C(O)c1nc(-c2cccs2)n(-c2ccc(F)cc2)n1,196 to 198
6,Nc1nncc(-c2ccc(OC(F)F)cc2)n1,223 to 225
7,CC(=O)N1CCc2cc(C(=O)C(C)Cl)ccc21 (stereo not given),129 to 131
8,CC(C)(C)OC(=O)NCCCCCCC(=O)O,44 to 46
9,CN(C(=O)CCl)C(C)(C)C#N,55 to 57
10,CCN(CC)C(=O)N1CCCC(C(=O)O)C1 (stereo not given),94 to 96
11,O=c1[nH][nH]c2ncccc12,260 to 262
12,O=C(O)C1CSC(c2cccs2)N1 (stereo not given),148 to 150
13,O=c1[nH]c2ccc(NCc3ccc(Cl)cc3)cc2[nH]1,264 to 266
14,O=C(O)c1ccc(NC(=O)c2ccco2)cc1,132 to 134
15,NC(=O)CNC(=O)c1ccc(N)cc1,216 to 218
16,O=Cc1ccc(N2CCNC(=O)C2)cc1,192 to 194
17,O=C(NCCO)c1ccccc1,60 to 62
18,CC(C)c1sc(NC(=O)CCl)nc1-c1ccccc1,136 to 138
19,c1cnnc(NCC2CNCCO2)c1 (stereo not given),148 to 150
20,COCC(C)C(N)=S (stereo not given),42 to 44
21,CC(=O)Nc1cc(S(=O)(=O)Cl)ccc1O,289 to 291
22,NC(=O)CCNC(=O)OCc1ccccc1,164 to 166
23,COc1ccc(-c2nc(CO)no2)cc1,141 to 143
24,CC(C)C(NS(=O)(=O)c1ccccc1F)C(=O)O (stereo not given),159 to 161
25,COc1ccc(N2C(=O)C=CC2=O)c(OC)c1,125 to 127

row,Structure (SMILES),melting point [°C]
1,CC(C)(C)c1ccc(OCC(=O)O)c(C(C)(C)C)c1,< 17
2,Cc1ccc(C)c2c(C)c(C(=O)O)oc12,239 to 241
3,COc1ccc(CNC(=O)C2CCNCC2)cc1,118 to 120
4,Cc1ccc(C2(C)NC(=O)N(CC(=O)O)C2=O)cc1 (stereo not given),206 to 208
5,CCN(c1ccccc1)S(=O)(=O)c1ccc(Cl)c(C(=O)O)c1,128 to 130
6,Cc1cc(C)c(C)c(OCCC(=O)O)c1,129 to 131
7,Cc1ccc(-c2n[nH]cc2Br)cc1C,116 to 118
8,CC(C)CNC(N)=O,134 to 138
9,COc1ccc(C(C)=O)c2ccccc12,64 to 66
10,Nc1ccc(Oc2ccccc2)cc1C(=O)O,138 to 140
11,CC(=O)c1cccc(NC(=O)OCC(F)(F)F)c1,135 to 137
12,O=C(Cc1cccc(F)c1)c1cccc(F)c1,49 to 51
13,Cc1cc(F)ccc1-c1ccc(C(=O)O)cc1F,189 to 191
14,N#CCCNc1ccc2c(c1)OCCO2,83 to 85
15,CCOCc1cc(C(=O)O)ccc1OC,142 to 146
16,OCc1ccc(Cc2ccccc2)cc1,37 to 39
17,O/N=C(/Cc1nc2ccccc2n1C(F)F)c1ccccc1,165 to 167
18,Cn1nc(Br)c2c(NN)ncnc21,198 to 200
19,O=C(O)c1nn(-c2ccccc2)c2c1CCC2,179 to 181
20,O=C(O)Cc1cccc(OCc2cccc(Cl)c2)c1,94 to 96
21,CC(C)NS(=O)(=O)c1cccc(CN)c1,98 to 100
22,N#CCC(=O)Nc1ccc(S(N)(=O)=O)cc1,215 to 217
23,COC(=O)CNC(=O)CCCl,59 to 61
24,O=C(O)CCC(=O)c1ccc(F)cc1F,113 to 115
25,Nc1ccc(CN2CCCC2=O)cc1,124 to 126

row,Structure (SMILES),melting point [°C]
1,CC1CC1c1ccc(/C=C/C(=O)O)o1 (stereo not given),73 to 75
2,CCOC(=O)c1cnn(-c2ccc(OCC)cc2)c1N,119 to 121
3,COC(=O)c1nc[nH]n1,180 to 182
4,Cc1c(Br)cc(C(=O)O)cc1S(=O)(=O)Cl,183 to 185
5,O=C(O)Cn1ccc(=O)[nH]c1=O,279 to 281
6,CCC1(CO)CCNCC1,59 to 61
7,CC(=O)c1cccc(OCC(=O)O)c1,119 to 121
8,CC(O)Cc1cc(F)ccc1Br (stereo not given),56 to 58
9,O=C(O)Cc1csc(-c2cc(Br)cs2)n1,129 to 131
10,O=Cc1cnc(-c2ccc(Cl)cc2)nc1,183 to 185
11,Nc1nc(S)nc2sccc12,275 to 277
12,Cc1nn(-c2ccc(Br)cc2)c(C)c1C(=O)O,231 to 233
13,N#Cc1ccccc1Oc1ccc(N)cn1,92 to 94
14,CC(C)Cc1ccc(-c2csc(N)n2)cc1,108 to 110
15,CC(C)c1noc2nc(C3CC3)cc(C(=O)O)c12,178 to 180
16,COC(=O)c1cc2c(Br)ccc(F)c2[nH]1,189 to 191
17,N#Cc1cccc(COc2ccc(N)cc2Cl)c1,112 to 114
18,C#CCOc1ccc(C(=O)O)cc1,216 to 218
19,N#Cc1cccc(Cn2ccnc2)c1,65 to 67
20,O=C(O)CS(=O)Cc1ccc(Br)cc1 (stereo not given),141 to 143
21,CN1C(=O)CCC(CO)C1c1ccc(C(F)(F)F)cc1 (stereo not given),95 to 97
22,CCc1ccc(C(=O)c2cccc(S(C)(=O)=O)c2)cc1,97 to 99
23,CN(C)S(=O)(=O)c1cccc(N)c1,125 to 127
24,Cc1cc(Br)cc(C)c1NCc1ncc[nH]1,142 to 144
25,CC(C)c1nnc(S)n1N,117 to 119

row,Structure (SMILES),melting point [°C]
1,Nc1nnc(-c2ccc(Cl)cc2Cl)[nH]1,228 to 230
2,CC1(C)NC(=O)N(CC(=O)O)C1=O,167 to 169
3,CCOC(=O)c1cn2c(Br)ccc2cn1,138 to 140
4,CCOc1ccc(C(CN)c2c[nH]c3ccccc23)cc1OC (stereo not given),114 to 116
5,O=S(=O)(F)CCn1nnc(-c2ccccc2)n1,97 to 99
6,CCc1[nH]nc(C(=O)O)c1[N+](=O)[O-],149 to 151
7,O=C(O)CN1C(=O)c2cc(Cl)c(Cl)cc2C1=O,309 to 311
8,O=C(O)C(F)(F)c1cccc(Cl)c1,75 to 77
9,O=C(O)CS(=O)c1ccc([N+](=O)[O-])cc1 (stereo not given),178 to 180
10,NC(=O)CCc1csc(N)n1,141 to 143
11,O=C(O)C(F)=C1CCCC1,83 to 85
12,NC(=O)c1ccc(Cl)cc1O,188 to 190
13,O=C(O)C1CCCN(C2=NS(=O)(=O)c3ccccc32)C1 (stereo not given),205 to 207
14,OC1CCc2c(F)cccc21 (stereo not given),59 to 61
15,NC(=O)[C@H]1CCCC[C@H]1C(=O)O,169 to 171
16,NNC(=O)c1cc2c(s1)CCCCC2,253 to 255
17,Nn1ccccc1=O,41 to 43
18,Cc1ccc(NC(N)=S)cc1F,148 to 150
19,c1ccc2c(c1)C1CCC2N1,92 to 94
20,O=C(O)c1cc(S(=O)(=O)Cl)c(Br)cc1Br,185 to 187
21,Nc1nc(-c2cccc(C(F)(F)F)c2)cs1,85 to 87
22,O=C1CCCc2cc(C(=O)CCl)ccc2N1,154 to 156
23,COC(=O)c1ccc(C(=O)O)o1,194 to 196
24,Nc1ccccc1C(=O)Nc1ccc2c(c1)OCO2,85 to 87
25,CCOC(=O)Nc1ccc(N)cc1,73 to 75

row,Structure (SMILES),melting point [°C]
1,CS(=O)(=O)Nc1ccc(Cl)c(N)c1,156 to 158
2,Cc1cnc(N)nc1,194 to 196
3,CC(=O)Oc1ccc(-c2ccc(C(=O)O)cc2)cc1,275 to 277
4,CC(C)(C)OC(=O)NCC1CCCCC1O (stereo not given),57 to 59
5,CC(C)Nc1cccnc1,40 to 42
6,Clc1noc(-c2ccco2)n1,73 to 75
7,O=C(O)C(c1ccccc1)N1C(=O)CCC1=O (stereo not given),194 to 196
8,CC(NS(=O)(=O)c1ccc(N)cc1)C1CC2CCC1C2 (stereo not given),202 to 204
9,O=S(=O)(c1ccc(N2CCNCC2)nc1)N1CCOCC1,184 to 186
10,O=C(O)c1cc2ccccc2nc1N1CCCC1,169 to 171
11,CC(C)OC(=O)c1cccc(-c2nn[nH]n2)c1,155 to 159
12,Cc1nnc(N2CCC(=O)CC2)s1,95 to 97
13,CC(C)NS(=O)(=O)c1ccccc1CN,79 to 81
14,CCN(CC)C(=O)c1sc2nc(CCl)[nH]c(=O)c2c1C,174 to 176
15,c1nnc(C2CCNCC2)[nH]1,208 to 210
16,O=Cc1c(O)cccc1Cl,52 to 54
17,NC1CCC(=O)NC1=O (stereo not given),214 to 216
18,Cn1c(C(=O)O)ccc1-c1ccccc1,143 to 145
19,Nc1ncon1,104 to 106
20,N#Cc1c(Cl)nsc1Cl,64 to 66
